Data reported in patent US11261185B2, “Bicyclic heterocyclic derivatives” (Merck Patent GmbH, priority 2015, dated 2022).
pIC50: −log10 of the molar value.

Tested on: PDH-E1 alpha (pSer300) in HEK293T cells
Experiment: Cellular immunofluorescence assay for compound activities (PDH-E1 alpha pSer300)
Assay type: cell-based, human
Conditions: 5 hours incubation, Anti-PDH-E1 alpha (pSer300) immunofluorescence, read-out: IC50 (cell data)
Experimental: Cellular Assay for Determination of Compound Activities
Compound activities were determined in a cellular immunofluorescence assay. Human HEK293T cells were seeded into black 384-well plates with clear bottom and grown overnight.
Next day, test compounds were added to the wells and the plates incubated for 5 hours. Following this, cells were fixed with formaldehyde, permeabilised and blocked. The primary antibody, Anti-PDH-E1 alpha (pSer300), AP1064 (Merck Millipore) was added and incubated overnight in the plate wells. Next, cells were washed and the seconday antibody, Alexa Fluor 488, goat anti-rabbit ab (A-11008, Invitrogen) was added together with Hoechst 33258 (H3569, Invitrogen) and incubated for 1 hour in the plate wells. Finally, cells were washed and the plates were measured on the laser scanning cytometer acumen hci (TTpLabtech).
The raw data were normalized against a pharmacological inhibitor control and dose response curves were generated by plotting the percent effect values using the software package Genedata screener (Genedata).

Row | SMILES | pIC50
1 | C[C@@](O)(C(=O)N1CCc2c(ncn2-c2ccc(Cl)cc2)C1)C(F)(F)F [Compound A45, (R)-1-[1-(4-Chloro-phenyl)-1,4,6,7-tetrahydro-imidazo[4,5-c]pyridin-5-yl]-3,3,3-trifluoro-2-hydroxy-2-methyl-propan-1-one] | 4.30 to 5.52
2 | C[C@@](O)(C(=O)N1CCc2c(ncn2-c2ccc(F)cc2)C1)C(F)(F)F [Compound A44, (R)-3,3,3-Trifluoro-1-[1-(4-fluoro-phenyl)-1,4,6,7-tetrahydro-imidazo[4,5-c]pyridin-5-yl]-2-hydroxy-2-methyl-propan-1-one] | 4.30 to 5.52
